Measured values reported in ChEMBL document CHEMBL3046608, “Efficient isolation of catechins from green tea and characterization of interaction property of catechins with proteins by HPLCUV/DAD combined with ultrafiltration” (Med Chem Res, 2012).

Key:
Lipid bilayer = assay: Binding affinity to Rattus norvegicus Wistar (rat) pancreatic phospholipid membrane by ultrafiltration-HPLC-UV/DAD method
Rattus norvegicus [1] = species: Rattus norvegicus; assay: Binding affinity to Rattus norvegicus Wistar (rat) pancreatic membrane protein by ultrafiltration-HPLC-UV/DAD method
Albumin [2] = molecular target: T1, Albumin (Homo sapiens, UniProt P02768); assay: Binding affinity to 0.6 mM Homo sapiens (human) serum albumin by ultrafiltration-HPLC-UV/DAD method; format: ADME
T1 sequence (P02768 whole entry): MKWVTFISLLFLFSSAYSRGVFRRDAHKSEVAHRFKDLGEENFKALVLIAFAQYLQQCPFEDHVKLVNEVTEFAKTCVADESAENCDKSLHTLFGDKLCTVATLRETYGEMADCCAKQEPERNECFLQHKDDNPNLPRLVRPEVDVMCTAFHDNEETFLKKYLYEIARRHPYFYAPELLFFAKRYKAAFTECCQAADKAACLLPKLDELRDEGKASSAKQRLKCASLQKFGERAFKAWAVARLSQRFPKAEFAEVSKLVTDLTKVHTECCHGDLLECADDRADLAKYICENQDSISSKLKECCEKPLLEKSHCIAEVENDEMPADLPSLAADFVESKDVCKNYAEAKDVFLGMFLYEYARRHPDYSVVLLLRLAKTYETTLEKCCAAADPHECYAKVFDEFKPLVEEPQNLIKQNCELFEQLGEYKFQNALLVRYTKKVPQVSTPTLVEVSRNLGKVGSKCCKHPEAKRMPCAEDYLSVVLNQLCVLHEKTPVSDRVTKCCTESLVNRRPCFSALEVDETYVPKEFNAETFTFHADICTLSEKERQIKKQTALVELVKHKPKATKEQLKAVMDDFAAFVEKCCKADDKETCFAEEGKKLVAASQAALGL

Albumin [3] = molecular target: T1, Albumin; assay: Binding affinity to 0.06 mM Homo sapiens (human) serum albumin by ultrafiltration-HPLC-UV/DAD method; format: ADME
[4] = (§1) Total plasma protein binding in Rattus norvegicus Wistar (rat) by ultrafiltration-HPLC-UV/DAD method; format: ADME, cell-free; conditions: Wistar, read-out: PPB (converted)
[5] = (§2) Total plasma protein binding in Homo sapiens (human) by ultrafiltration-HPLC-UV/DAD method; format: ADME, cell-free; conditions: read-out: PPB (converted)
Rattus norvegicus [6] = species: Rattus norvegicus; assay: Selectivity ratio of binding affinity to Rattus norvegicus Wistar (rat) pancreatic membrane protein to Rattus norvegicus Wistar (rat) pancreatic phospholipid membrane
[7] = Diluted plasma protein binding in Rattus norvegicus Wistar (rat) by ultrafiltration-HPLC-UV/DAD method; format: ADME, cell-free; conditions: read-out: PPB (converted)
[8] = Diluted plasma protein binding in Homo sapiens (human) by ultrafiltration-HPLC-UV/DAD method; format: ADME, cell-free; conditions: read-out: PPB (converted)
Plasma [9] = assay: as §1; format: ADME, cell-free
Plasma [10] = assay: as §2; format: ADME, cell-free

Compound	Activity (Lipid bilayer)	Activity (Rattus norvegicus [1])	Activity (Albumin [2])	Activity (Albumin [3])	fraction unbound [4]	fraction unbound [5]	Ratio (Rattus norvegicus [6])	fraction unbound [7]	fraction unbound [8]	PPB (Plasma [9])	PPB (Plasma [10])
O=C(O[C@@H]1Cc2c(O)cc(O)cc2O[C@@H]1c1cc(O)c(O)c(O)c1)c1cc(O)c(O)c(O)c1 [EPIGALOCATECHIN GALLATE]	78.8%	37.4%	85.2%	68.7%	0.15	0.15	–	–	–	–	–
O=C(O[C@@H]1Cc2c(O)cc(O)cc2O[C@@H]1c1ccc(O)c(O)c1)c1cc(O)c(O)c(O)c1 [EPICATECHIN GALLATE]	91.5%	39.2%	85.8%	69.5%	0.15	0.15	2	–	–	–	–
Oc1cc(O)c2c(c1)O[C@@H](c1ccc(O)c(O)c1)[C@H](O)C2 [(-)-CATECHIN]	–	36.9%	65.6%	30.9%	0.15	0.15	–	0.55	0.55	–	–
Cn1c(=O)c2c(ncn2C)n(C)c1=O [CAFFEINE]	62.8%	–	72.7%	58.4%	–	–	–	–	–	80%	80%
